Patent US6737383B1, “Herbicidal oxadiazolidines” (priority 1999, dated 2004)

Experiments:
[1] = test system: wild oat; assay: Test B pre/postemergence wild oat; assay type: in vivo, Avena fatua
How it was run: (§1)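 Test chemicals in a non-phytotoxic solvent mixture with surfactant were sprayed preemergence onto planted seeds and postemergence onto plants 2 to 18 cm tall (1- to 4-leaf stage). After twelve to sixteen days in a greenhouse, injury was visually rated against untreated controls from 0 (no effect) to 10 (complete control).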

[2] = test system: soybean; assay: Test B pre/postemergence soybean; assay type: in vivo, Glycine max
How it was run: as §1

[3] = test system: wheat; assay: Test B pre/postemergence wheat; assay type: in vivo, Triticum aestivum
How it was run: as §1

[4] = test system: velvetleaf; assay: Test B pre/postemergence velvetleaf; assay type: in vivo, Abutilon theophrasti
How it was run: as §1

[5] = test system: bedstraw; assay: Test B pre/postemergence bedstraw; assay type: in vivo, Galium aparine
How it was run: as §1

[6] = test system: rape; assay: Test B pre/postemergence rape; assay type: in vivo, Brassica napus
How it was run: as §1

[7] = test system: smallflower flatsedge; assay: Test B flood test smallflower flatsedge; assay type: in vivo, Cyperus difformis
How it was run: (§2)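 Each value is a visual injury score relative to controls, with 10 meaning complete control and 0 no effect. Evaluation took place twelve to sixteen days after the 2-leaf-stage plants were treated and kept in the greenhouse.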

[8] = test system: sugar beet; assay: Test B pre/postemergence sugar beet; assay type: in vivo, Beta vulgaris
How it was run: as §1

[9] = test system: surinam grass; assay: Test B pre/postemergence surinam grass; assay type: in vivo, Brachiaria decumbens
How it was run: as §1

[10] = test system: giant foxtail; assay: Test B pre/postemergence giant foxtail; assay type: in vivo, Setaria faberii
How it was run: as §1

[11] = test system: corn; assay: Test B pre/postemergence corn; assay type: in vivo, Zea mays
How it was run: as §1

[12] = test system: purple nutsedge; assay: Test B pre/postemergence purple nutsedge; assay type: in vivo, Cyperus rotundus
How it was run: as §1

[13] = test system: pigweed; assay: Test B pre/postemergence pigweed; assay type: in vivo, Amaranthus retroflexus
How it was run: as §1

[14] = test system: duck salad; assay: Test B flood test duck salad; assay type: in vivo, Heteranthera limosa
How it was run: as §2

[15] = test system: cocklebur; assay: Test B pre/postemergence cocklebur; assay type: in vivo, Xanthium strumarium
How it was run: as §1

[16] = test system: rice; assay: Test B flood test rice; assay type: in vivo, Oryza sativa
How it was run: as §2

[17] = Postemergence, Rate 62 g/ha, scale 0 to 10, 0 is no effect, 10 is complete control
[18] = Postemergence, Rate 125 g/ha, scale of 0 to 10 where 0 is no effect and 10 is complete control
[19] = Postemergence, Rate 250 g/ha, scale of 0 to 10, 0 is no effect, 10 is complete control
[20] = Preemergence, Rate 62 g/ha, scale 0 to 10 (0 no effect, 10 complete control)
[21] = Preemergence, Rate 125 g/ha, scale of 0 to 10 where 0 is no effect and 10 is complete control
[22] = Preemergence, Rate 250 g/ha, scale 0 to 10 (0 no effect, 10 complete control)
[23] = Preemergence, Rate 500 g/ha, scale of 0 to 10 where 0 is no effect and 10 is complete control
[24] = Postemergence, Rate 500 g/ha, scale of 0 to 10 where 0 is no effect and 10 is complete control
[25] = Rate 62 g/ha, flood test species, Pre-emergence, visual evaluation after twelve to sixteen days
[26] = Rate 125 g/ha, under heading Pre-emergence, flood test species, visual evaluation after twelve to sixteen days
[27] = Rate 250 g/ha, Pre-emergence (flood test species), scale 0 to 10, 0 is no effect, 10 is complete control
[28] = Rate 500 g/ha, Pre-emergence section of Table B, 0 to 10 scale (0 no effect, 10 complete control)

## CC(C)N(C(=O)n1oc(=O)n(CC2CCCCO2)c1=O)c1ccc(F)cc1 (centres unmarked) [Compound 624]
[1]; [17]
  Plant response rating, Wild oats: 0
[1]; [18]
  Plant response rating, Wild oats: 0
[1]; [19]
  Wild oats plant response rating: 0
[1]; [20]
  Wild oats plant response rating: 2
[1]; [21]
  Wild oats plant response rating: 6
[1]; [22]
  Plant response rating, Wild oats: 6
[1]; [23]
  Plant response rating, Wild oats: 6
[2]; [17]
  Plant response rating, Soybean: 2
[2]; [18]
  Plant response rating, Soybean: 3
[2]; [19]
  Soybean plant response rating: 7
[2]; [20]
  Soybean plant response rating: 0
[2]; [21]
  Soybean plant response rating: 0
[2]; [22]
  Plant response rating, Soybean: 3
[2]; [23]
  Plant response rating, Soybean: 7
[3]; [17]
  Plant response rating, Wheat: 0
[3]; [18]
  Plant response rating, Wheat: 0
[3]; [19]
  Wheat plant response rating: 0
[3]; [20]
  Wheat plant response rating: 0
[3]; [21]
  Wheat plant response rating: 0
[3]; [22]
  Plant response rating, Wheat: 6
[3]; [23]
  Plant response rating, Wheat: 7
[4]; [17]
  Plant response rating, Velvetleaf: 0
[4]; [18]
  Plant response rating, Velvetleaf: 0
[4]; [19]
  Velvetleaf plant response rating: 0
[4]; [20]
  Velvetleaf plant response rating: 0
[4]; [21]
  Velvetleaf plant response rating: 0
[4]; [22]
  Plant response rating, Velvetleaf: 1
[4]; [23]
  Plant response rating, Velvetleaf: 8
[5]; [17]
  Plant response rating, Bedstraw: 0
[5]; [20]
  Bedstraw plant response rating: 0
[5]; [21]
  Bedstraw plant response rating: 0
[5]; [22]
  Plant response rating, Bedstraw: 0
[5]; [23]
  Plant response rating, Bedstraw: 3
[6]; [17]
  Plant response rating, Rape: 0
[6]; [18]
  Plant response rating, Rape: 0
[6]; [19]
  Rape plant response rating: 0
[6]; [24]
  Plant response rating, Rape: 3
[6]; [20]
  Rape plant response rating: 0
[6]; [21]
  Rape plant response rating: 0
[6]; [22]
  Plant response rating, Rape: 1
[6]; [23]
  Plant response rating, Rape: 7
[7]; [25]
  Plant response rating, S. Flatsedge (0 to 10 scale, 0 is no effect, 10 is complete control): 0
[7]; [26]
  S. Flatsedge plant response rating (0 to 10 scale, 0 is no effect, 10 is complete control): 0
[7]; [27]
  S. Flatsedge plant response rating: 0
[7]; [28]
  S. Flatsedge plant response rating: 0
[8]; [17]
  Plant response rating, Sugarbeets: 0
[8]; [18]
  Plant response rating, Sugarbeets: 0
[8]; [19]
  Sugarbeets plant response rating: 0
[8]; [20]
  Sugarbeets plant response rating: 0
[8]; [21]
  Sugarbeets plant response rating: 1
[8]; [22]
  Plant response rating, Sugarbeets: 7
[8]; [23]
  Plant response rating, Sugarbeets: 8
[9]; [17]
  Plant response rating, B. signalgrass: 4
[9]; [18]
  Plant response rating, B. signalgrass: 7
[9]; [19]
  B. signalgrass plant response rating: 7
[9]; [24]
  Plant response rating, B. signalgrass: 8
[9]; [20]
  B. signalgrass plant response rating: 3
[9]; [21]
  B. signalgrass plant response rating: 6
[9]; [22]
  Plant response rating, B. signalgrass: 6
[9]; [23]
  Plant response rating, B. signalgrass: 8
[10]; [17]
  Plant response rating, Giant foxtail: 4
[10]; [18]
  Plant response rating, Giant foxtail: 8
[10]; [19]
  Giant foxtail plant response rating: 8
[10]; [24]
  Plant response rating, Giant foxtail: 9
[10]; [20]
  Giant foxtail plant response rating: 10
[10]; [21]
  Giant foxtail plant response rating: 10
[10]; [22]
  Plant response rating, Giant foxtail: 10
[10]; [23]
  Plant response rating, Giant foxtail: 10
[11]; [17]
  Plant response rating, Corn: 0
[11]; [18]
  Plant response rating, Corn: 0
[11]; [19]
  Corn plant response rating: 2
[11]; [24]
  Plant response rating, Corn: 5
[11]; [20]
  Corn plant response rating: 0
[11]; [21]
  Corn plant response rating: 0
[11]; [22]
  Plant response rating, Corn: 2
[11]; [23]
  Plant response rating, Corn: 6
[12]; [17]
  Plant response rating, Nutsedge: 0
[12]; [18]
  Plant response rating, Nutsedge: 0
[12]; [19]
  Nutsedge plant response rating: 0
[12]; [24]
  Plant response rating, Nutsedge: 3
[12]; [20]
  Nutsedge plant response rating: 0
[12]; [21]
  Nutsedge plant response rating: 0
[12]; [22]
  Plant response rating, Nutsedge: 0
[12]; [23]
  Plant response rating, Nutsedge: 0
[13]; [17]
  Plant response rating, Redroot pigweed: 0
[13]; [18]
  Plant response rating, Redroot pigweed: 0
[13]; [19]
  Redroot pigweed plant response rating: 2
[13]; [20]
  Redroot pigweed plant response rating: 0
[13]; [21]
  Redroot pigweed plant response rating: 0
[13]; [22]
  Plant response rating, Redroot pigweed: 3
[13]; [23]
  Plant response rating, Redroot pigweed: 10
[14]; [25]
  Plant response rating, Ducksalad (0 to 10 scale, 0 is no effect, 10 is complete control): 0
[14]; [26]
  Ducksalad plant response rating (0 to 10 scale, 0 is no effect, 10 is complete control): 0
[14]; [27]
  Ducksalad plant response rating: 0
[14]; [28]
  Ducksalad plant response rating: 0
[15]; [17]
  Plant response rating, Cocklebur: 0
[15]; [18]
  Plant response rating, Cocklebur: 0
[15]; [19]
  Cocklebur plant response rating: 2
[15]; [24]
  Plant response rating, Cocklebur: 6
[15]; [20]
  Cocklebur plant response rating: 0
[15]; [21]
  Cocklebur plant response rating: 0
[15]; [22]
  Plant response rating, Cocklebur: 0
[15]; [23]
  Plant response rating, Cocklebur: 0
[16]; [25]
  Plant response rating, Rice (0 to 10 scale, 0 is no effect, 10 is complete control): 0
[16]; [26]
  Rice plant response rating (0 to 10 scale, 0 is no effect, 10 is complete control): 0
[16]; [27]
  Rice plant response rating: 0
[16]; [28]
  Rice plant response rating: 0
